Source: ChEMBL document CHEMBL1201862, “PubChem BioAssay data set” (2004)
The source made the active and inactive calls.

Tests used:
INS1 = assay: beta cell apoptosis inhibitors, cytokine rescue, dose response, luminescence, retest (AID 449756); format: functional, cell-based; conditions: Rattus norvegicus;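 also: cell death triggered by IL-1 beta plus TNF-alpha plus IFN-gamma mixture; protective hits raise ATP signal compared with cytokine alone wells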
HEK293 [1] = assay: cells; format: functional, cell-based; conditions: Homo sapiens
HEK293 [2] = assay: cells; conditions: Homo sapiens
[3] = molecular target: Nucleotide-binding oligomerization domain-containing protein 1 (Homo sapiens, UniProt Q9Y239); assay: NOD1 signaling inhibitors, SAR follow-up, revised (AID 2333); format: functional
HEK293 [4] = assay: NOD1 signaling inhibitors, primary screen, cell-based, luminescence, uHTS (AID 1578); format: functional; conditions: Homo sapiens
[5] = control 3'UTR Renilla luciferase suppression, dose response, counter-screen for Shn3 inhibitor project, cell-based, Clone20-Shn3RL, cherry-picked (AID 624133); format: functional
[6] = HepG2 cell cytotoxicity, dose response, cytotoxicity control for Shn3 inhibitor project, CellTiter-Glo, cherry-picked (AID 624134); format: functional, cell-based
[7] = Shn3 3'UTR reporter inhibitors, dose response, cell-based, Clone20 osteoblasts, firefly luciferase, cherry-picked (AID 624132); format: functional;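 also: firefly luciferase luminescence from reporter carrying the Shn3 3'UTR in osteoblasts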
HEK293 [8] = assay: NOD2 signaling inhibitors in MDP-stimulated cells, cell-based, uHTS, luminescence (AID 2001); format: functional; conditions: Homo sapiens
HEK293 [9] = assay: cells; format: functional, cell-based; conditions: Homo sapiens; remark: listed apart in the source
[10] = molecular target: Induced myeloid leukemia cell differentiation protein Mcl-1 (Homo sapiens, UniProt Q07820); assay: MCL1-BIM BH3 interaction inhibitors, dose response, biochemical, fluorescence polarization, BIM-BH3 peptide, 1536-well (AID 2217)
[11] = molecular target: T1, Voltage-gated N-type calcium channel alpha-1B subunit/Amyloid beta A4 precursor protein-binding family A member 1 (Homo sapiens, UniProt Q00975+Q02410); format: protein assay
Genome polyprotein = Genome polyprotein (dengue virus type 2, UniProt P29990); assay: Dengue-2 NS5 methyltransferase inhibitors, primary screen, biochemical, confirmation dose response (AID 588689); format: functional
[12] = molecular target: Dual specificity protein phosphatase 6 (Rattus norvegicus, UniProt Q64346); assay: MKP-3 phosphatase inhibitors, primary screen, biochemical, rat enzyme, in vitro (AID 425)
Beta-galactosidase = Beta-galactosidase (Escherichia coli, UniProt Q8VNN2); assay: beta-galactosidase enzyme inhibitors and activators, dose response, artefact control for CCR6 antagonist project, biochemical, E. coli enzyme, set 3 (AID 504712); format: functional
[13] = molecular target: T1, Voltage-gated N-type calcium channel alpha-1B subunit/Amyloid beta A4 precursor protein-binding family A member 1; format: protein assay; remark: listed apart in the source
Protein RecA = molecular target: T2, Protein RecA (Mycobacterium tuberculosis, UniProt P9WHJ3); assay: Fluorescence Cell-Free Homogeneous Dose Retest to Identify Inhibitors of RecA-Intein Splicing Activity. [Related pubchem assays (depositor defined):AID2097, AID2223, AID489010, AID492950]; format: functional
T2 sequence (P9WHJ3 whole entry): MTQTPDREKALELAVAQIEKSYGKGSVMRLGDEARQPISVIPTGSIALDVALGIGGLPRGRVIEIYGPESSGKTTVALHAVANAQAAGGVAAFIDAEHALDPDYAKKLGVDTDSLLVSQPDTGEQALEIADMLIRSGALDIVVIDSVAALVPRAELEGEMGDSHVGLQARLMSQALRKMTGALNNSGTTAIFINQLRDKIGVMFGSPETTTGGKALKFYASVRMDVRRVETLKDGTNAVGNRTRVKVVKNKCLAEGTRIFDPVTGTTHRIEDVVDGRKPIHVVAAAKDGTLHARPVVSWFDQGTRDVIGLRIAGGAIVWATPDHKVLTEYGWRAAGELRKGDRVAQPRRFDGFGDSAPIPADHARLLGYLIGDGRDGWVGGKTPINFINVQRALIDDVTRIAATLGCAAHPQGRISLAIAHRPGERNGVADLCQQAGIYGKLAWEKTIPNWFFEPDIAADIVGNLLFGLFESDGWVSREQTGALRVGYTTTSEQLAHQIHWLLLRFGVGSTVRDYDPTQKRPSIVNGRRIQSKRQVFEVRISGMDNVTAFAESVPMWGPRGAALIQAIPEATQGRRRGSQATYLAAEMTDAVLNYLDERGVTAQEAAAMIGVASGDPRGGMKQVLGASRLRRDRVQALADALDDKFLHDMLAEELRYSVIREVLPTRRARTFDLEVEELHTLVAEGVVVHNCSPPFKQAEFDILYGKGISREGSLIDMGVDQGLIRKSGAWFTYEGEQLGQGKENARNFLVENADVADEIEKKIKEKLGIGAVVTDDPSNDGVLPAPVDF

[14] = molecular target: T3, Dual specificity protein phosphatase 3 (Homo sapiens, UniProt P51452); assay: VHR1 phosphatase inhibitors, primary screen, biochemical, absorbance, uHTS (AID 1654)
[15] = molecular target: T4, Replicative DNA helicase DnaB (Mycobacterium tuberculosis, UniProt P9WMR3); assay: DnaB intein splicing inhibitors, dose response, biochemical, cell-free fluorescence (AID 449749); format: functional
T4 sequence (P9WMR3 whole entry): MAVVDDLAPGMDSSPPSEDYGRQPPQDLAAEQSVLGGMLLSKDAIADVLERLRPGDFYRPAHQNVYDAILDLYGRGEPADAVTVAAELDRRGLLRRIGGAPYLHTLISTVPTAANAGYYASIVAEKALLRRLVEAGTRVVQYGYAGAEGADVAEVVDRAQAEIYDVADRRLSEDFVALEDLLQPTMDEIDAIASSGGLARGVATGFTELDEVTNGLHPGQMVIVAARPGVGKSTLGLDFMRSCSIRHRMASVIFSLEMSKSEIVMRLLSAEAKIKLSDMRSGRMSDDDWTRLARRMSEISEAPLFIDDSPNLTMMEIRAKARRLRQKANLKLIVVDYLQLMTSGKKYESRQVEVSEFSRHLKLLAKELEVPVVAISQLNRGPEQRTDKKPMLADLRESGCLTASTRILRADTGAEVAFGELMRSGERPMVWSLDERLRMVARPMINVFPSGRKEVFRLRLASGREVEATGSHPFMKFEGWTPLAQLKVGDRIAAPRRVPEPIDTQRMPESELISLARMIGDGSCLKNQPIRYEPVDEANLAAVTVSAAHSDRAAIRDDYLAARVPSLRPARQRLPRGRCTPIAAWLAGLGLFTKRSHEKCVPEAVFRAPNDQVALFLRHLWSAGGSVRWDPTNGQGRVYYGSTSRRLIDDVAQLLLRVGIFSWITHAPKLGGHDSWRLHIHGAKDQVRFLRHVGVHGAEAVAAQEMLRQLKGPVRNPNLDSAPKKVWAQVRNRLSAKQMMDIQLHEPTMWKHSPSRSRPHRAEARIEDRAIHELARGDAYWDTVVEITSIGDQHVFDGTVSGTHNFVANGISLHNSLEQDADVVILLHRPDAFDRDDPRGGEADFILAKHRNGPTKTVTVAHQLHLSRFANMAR

Bcl-2-like protein 1 = Bcl-2-like protein 1 (Homo sapiens, UniProt Q07817); assay: BCL-XL inhibitors, dose response, selectivity assay for MCL1 inhibitor project, biochemical, fluorescence polarization, 1536-well (AID 2218)
[16] = molecular target: T3, Dual specificity protein phosphatase 3; assay: VHR1 phosphatase inhibitors, biochemical (AID 1878)

T1 sequence (Q00975 whole entry): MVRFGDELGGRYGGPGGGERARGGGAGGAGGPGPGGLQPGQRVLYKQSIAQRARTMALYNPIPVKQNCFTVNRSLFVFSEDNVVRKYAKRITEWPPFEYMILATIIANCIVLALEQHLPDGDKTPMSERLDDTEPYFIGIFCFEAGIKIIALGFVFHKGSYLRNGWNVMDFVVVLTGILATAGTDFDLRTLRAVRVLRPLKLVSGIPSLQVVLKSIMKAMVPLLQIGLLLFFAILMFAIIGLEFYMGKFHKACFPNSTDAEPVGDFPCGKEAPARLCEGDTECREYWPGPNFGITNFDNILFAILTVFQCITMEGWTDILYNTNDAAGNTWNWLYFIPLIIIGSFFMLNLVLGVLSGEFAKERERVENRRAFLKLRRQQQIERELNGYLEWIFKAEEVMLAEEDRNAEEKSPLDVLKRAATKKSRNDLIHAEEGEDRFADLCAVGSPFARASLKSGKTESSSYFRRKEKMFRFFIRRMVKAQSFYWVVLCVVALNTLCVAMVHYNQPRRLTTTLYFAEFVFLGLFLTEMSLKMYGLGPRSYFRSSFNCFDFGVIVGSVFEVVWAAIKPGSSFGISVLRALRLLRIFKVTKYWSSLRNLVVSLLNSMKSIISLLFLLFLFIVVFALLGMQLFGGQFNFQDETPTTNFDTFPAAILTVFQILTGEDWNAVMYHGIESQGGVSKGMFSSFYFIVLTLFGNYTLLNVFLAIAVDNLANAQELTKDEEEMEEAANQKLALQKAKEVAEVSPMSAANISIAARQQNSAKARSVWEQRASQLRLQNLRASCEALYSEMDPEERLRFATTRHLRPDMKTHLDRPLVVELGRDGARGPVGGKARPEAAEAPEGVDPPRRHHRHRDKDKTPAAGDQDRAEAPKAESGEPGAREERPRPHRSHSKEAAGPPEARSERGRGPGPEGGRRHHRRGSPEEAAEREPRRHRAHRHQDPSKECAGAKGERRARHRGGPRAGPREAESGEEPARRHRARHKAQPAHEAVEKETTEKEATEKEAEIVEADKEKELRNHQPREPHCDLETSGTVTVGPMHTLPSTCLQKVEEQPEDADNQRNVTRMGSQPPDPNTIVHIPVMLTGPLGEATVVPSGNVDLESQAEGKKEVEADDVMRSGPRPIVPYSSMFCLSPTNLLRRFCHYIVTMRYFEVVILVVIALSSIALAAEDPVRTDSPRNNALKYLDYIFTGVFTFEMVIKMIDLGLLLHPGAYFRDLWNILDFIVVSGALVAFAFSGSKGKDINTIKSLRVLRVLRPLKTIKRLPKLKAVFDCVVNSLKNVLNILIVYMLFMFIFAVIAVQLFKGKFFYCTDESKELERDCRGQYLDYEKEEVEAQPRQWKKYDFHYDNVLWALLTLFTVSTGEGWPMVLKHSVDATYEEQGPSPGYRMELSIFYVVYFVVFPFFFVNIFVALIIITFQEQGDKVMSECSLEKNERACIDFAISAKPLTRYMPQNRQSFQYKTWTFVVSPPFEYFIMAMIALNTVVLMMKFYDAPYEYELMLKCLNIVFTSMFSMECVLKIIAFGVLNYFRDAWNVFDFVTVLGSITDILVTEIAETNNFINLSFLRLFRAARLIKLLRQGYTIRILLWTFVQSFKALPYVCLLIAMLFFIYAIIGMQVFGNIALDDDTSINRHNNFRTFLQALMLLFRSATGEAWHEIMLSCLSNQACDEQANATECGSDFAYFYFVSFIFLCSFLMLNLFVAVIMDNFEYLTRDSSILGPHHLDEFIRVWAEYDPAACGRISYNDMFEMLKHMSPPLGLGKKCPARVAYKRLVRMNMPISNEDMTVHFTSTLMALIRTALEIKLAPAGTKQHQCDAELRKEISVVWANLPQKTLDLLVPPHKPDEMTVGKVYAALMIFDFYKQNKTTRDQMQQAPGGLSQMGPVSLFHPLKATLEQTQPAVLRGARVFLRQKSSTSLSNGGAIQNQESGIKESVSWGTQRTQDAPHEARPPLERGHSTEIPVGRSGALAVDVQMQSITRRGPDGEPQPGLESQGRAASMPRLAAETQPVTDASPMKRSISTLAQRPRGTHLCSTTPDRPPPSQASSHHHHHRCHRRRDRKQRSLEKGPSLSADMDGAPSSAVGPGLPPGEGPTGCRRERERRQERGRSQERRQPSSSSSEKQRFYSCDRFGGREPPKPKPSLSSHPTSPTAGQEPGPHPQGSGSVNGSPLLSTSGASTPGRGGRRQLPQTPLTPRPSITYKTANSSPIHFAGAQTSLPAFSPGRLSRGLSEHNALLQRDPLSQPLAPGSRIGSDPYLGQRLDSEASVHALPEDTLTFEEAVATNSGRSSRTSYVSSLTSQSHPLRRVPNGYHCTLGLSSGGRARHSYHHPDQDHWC
T1 sequence (Q02410 whole entry): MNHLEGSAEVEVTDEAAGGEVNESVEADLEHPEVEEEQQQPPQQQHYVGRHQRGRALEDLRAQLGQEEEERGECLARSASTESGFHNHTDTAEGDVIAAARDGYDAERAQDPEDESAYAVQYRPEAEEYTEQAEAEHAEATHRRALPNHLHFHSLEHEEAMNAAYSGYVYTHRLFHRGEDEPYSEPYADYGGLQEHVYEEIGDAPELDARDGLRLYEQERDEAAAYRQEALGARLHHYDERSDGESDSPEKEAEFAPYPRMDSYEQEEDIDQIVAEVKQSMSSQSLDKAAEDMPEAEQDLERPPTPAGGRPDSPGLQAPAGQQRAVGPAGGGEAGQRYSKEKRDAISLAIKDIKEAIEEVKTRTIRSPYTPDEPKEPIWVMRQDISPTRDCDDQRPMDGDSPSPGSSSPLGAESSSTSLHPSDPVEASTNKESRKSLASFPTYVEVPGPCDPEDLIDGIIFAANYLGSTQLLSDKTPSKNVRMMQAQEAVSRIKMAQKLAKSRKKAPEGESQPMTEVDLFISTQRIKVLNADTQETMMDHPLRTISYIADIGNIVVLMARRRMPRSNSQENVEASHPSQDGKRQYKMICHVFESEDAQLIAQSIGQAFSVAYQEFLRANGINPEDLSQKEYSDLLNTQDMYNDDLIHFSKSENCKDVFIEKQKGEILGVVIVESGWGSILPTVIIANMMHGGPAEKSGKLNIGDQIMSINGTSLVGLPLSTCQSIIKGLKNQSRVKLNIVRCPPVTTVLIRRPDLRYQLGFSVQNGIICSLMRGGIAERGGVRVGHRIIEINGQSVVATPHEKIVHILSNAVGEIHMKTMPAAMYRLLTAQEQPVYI
T3 sequence (P51452 whole entry): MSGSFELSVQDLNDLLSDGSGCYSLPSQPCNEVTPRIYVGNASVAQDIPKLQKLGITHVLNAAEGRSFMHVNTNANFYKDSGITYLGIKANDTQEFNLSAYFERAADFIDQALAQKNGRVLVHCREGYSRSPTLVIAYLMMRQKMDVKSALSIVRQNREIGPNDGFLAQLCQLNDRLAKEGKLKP
Chain of Bcl-2-like protein 1 (Q07817 whole entry): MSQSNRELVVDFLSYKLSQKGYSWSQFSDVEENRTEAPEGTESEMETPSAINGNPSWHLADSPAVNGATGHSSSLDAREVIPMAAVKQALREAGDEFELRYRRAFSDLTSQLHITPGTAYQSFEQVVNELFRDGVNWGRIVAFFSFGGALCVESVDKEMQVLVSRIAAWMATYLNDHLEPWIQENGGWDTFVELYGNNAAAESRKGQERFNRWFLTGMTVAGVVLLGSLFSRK
Chain of Nucleotide-binding oligomerization domain-containing protein 1 (Q9Y239 whole entry, the tested form may be a part): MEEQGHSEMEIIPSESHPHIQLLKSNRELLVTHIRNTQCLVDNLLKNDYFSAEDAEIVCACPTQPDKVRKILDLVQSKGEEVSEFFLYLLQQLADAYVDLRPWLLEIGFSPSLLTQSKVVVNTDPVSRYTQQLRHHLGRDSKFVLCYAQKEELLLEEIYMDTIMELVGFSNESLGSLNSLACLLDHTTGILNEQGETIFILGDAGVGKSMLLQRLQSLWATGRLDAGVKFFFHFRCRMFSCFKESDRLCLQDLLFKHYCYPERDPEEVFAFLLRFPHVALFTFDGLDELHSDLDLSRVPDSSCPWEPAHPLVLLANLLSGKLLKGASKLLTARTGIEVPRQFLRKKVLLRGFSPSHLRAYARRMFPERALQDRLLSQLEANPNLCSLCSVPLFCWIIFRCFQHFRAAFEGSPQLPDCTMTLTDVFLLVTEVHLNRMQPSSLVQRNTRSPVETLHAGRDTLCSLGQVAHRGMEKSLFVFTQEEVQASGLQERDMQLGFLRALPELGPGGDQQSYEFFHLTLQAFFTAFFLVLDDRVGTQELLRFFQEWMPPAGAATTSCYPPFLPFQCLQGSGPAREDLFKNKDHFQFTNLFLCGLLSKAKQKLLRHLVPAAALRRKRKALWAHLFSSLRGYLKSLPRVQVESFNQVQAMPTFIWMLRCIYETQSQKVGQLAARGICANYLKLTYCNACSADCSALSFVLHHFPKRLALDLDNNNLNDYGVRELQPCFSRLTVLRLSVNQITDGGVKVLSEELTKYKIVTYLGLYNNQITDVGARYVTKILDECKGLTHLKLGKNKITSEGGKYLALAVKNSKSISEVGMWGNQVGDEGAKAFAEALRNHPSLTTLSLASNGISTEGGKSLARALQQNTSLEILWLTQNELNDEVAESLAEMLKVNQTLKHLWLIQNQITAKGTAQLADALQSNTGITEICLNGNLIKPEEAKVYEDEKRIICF
Chain of Dual specificity protein phosphatase 6 (Q64346 whole entry): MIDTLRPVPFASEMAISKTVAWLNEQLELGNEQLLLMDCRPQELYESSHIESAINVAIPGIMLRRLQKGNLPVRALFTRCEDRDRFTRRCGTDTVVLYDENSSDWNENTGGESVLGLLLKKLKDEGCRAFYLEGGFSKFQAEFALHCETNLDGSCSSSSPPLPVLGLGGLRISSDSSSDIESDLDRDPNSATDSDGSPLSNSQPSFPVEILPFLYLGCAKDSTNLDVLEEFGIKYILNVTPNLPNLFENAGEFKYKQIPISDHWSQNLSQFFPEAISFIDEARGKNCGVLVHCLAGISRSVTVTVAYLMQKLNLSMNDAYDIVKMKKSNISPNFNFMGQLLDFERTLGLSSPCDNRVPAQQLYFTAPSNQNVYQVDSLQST

CC1Sc2ccc(S(=O)(=O)N3CCC(C(=O)Nc4ccc(Cl)cc4)CC3)cc2NC1=O (stereo unspecified)
active: AC50 (INS1) 4.55 µM | IC50 (HEK293 [1]) 3.16 µM | IC50 (HEK293 [2]) 7.68 µM | IC50 [3] 3.11 µM | EC50 (HEK293 [4]) 2.15 µM | AC50 [5] 1.6 µM | AC50 [6] 3.26 µM | AC50 [7] 2.42 µM | IC50 (HEK293 [8]) 3.93 µM | IC50 (HEK293 [9]) 8.24 µM

O=C(CN1C(=O)/C(=C2\SC(=S)N(CCS(=O)(=O)O)C2=O)c2ccccc21)Nc1cccc(Br)c1
inactive: IC50 [11] > 50 µM | IC50 (Beta-galactosidase) > 66.6 µM
active: IC50 [10] 2 µM | IC50 (Genome polyprotein) 21.6 µM | IC50 [12] 30 µM | IC50 [13] 9.59 µM | EC50 (Protein RecA) 7.59 µM | IC50 [14] 3.65 µM | AC50 [15] 12.4 µM | IC50 [16] 4.92 µM
> 109 µM (not active): IC50 (Bcl-2-like protein 1)
